# Experimental data from US9492471B2, “Methods of treating a disease or disorder associated with Bruton'S Tyrosine Kinase” (Celgene Avilomics Research, Inc., priority 2013, dated 2016).
# Read-outs that look alike come from different tables or passages of the source.
# Assays:
# Experiment in all cases: HotSpot kinase profiling
# Format in all cases: biochemical
# ABL2/ARG = target: T1, ABL2/ARG (Homo sapiens, UniProt P42684)
# T1 construct: purchased Reaction Biology Corp
# How it was run: (§1)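 Percent inhibition, averaged when run more than once and referenced to a DMSO negative control, came from a radioactive filter-binding readout on P81 paper. Reactions of kinase with freshly made substrate and cofactors ran for 2 h at room temperature.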
# SIK2 = target: T2, SIK2 (Homo sapiens, UniProt Q9H0K1)
# T2 construct: purchased Reaction Biology Corp
# T2 sequence (Q9H0K1 whole entry): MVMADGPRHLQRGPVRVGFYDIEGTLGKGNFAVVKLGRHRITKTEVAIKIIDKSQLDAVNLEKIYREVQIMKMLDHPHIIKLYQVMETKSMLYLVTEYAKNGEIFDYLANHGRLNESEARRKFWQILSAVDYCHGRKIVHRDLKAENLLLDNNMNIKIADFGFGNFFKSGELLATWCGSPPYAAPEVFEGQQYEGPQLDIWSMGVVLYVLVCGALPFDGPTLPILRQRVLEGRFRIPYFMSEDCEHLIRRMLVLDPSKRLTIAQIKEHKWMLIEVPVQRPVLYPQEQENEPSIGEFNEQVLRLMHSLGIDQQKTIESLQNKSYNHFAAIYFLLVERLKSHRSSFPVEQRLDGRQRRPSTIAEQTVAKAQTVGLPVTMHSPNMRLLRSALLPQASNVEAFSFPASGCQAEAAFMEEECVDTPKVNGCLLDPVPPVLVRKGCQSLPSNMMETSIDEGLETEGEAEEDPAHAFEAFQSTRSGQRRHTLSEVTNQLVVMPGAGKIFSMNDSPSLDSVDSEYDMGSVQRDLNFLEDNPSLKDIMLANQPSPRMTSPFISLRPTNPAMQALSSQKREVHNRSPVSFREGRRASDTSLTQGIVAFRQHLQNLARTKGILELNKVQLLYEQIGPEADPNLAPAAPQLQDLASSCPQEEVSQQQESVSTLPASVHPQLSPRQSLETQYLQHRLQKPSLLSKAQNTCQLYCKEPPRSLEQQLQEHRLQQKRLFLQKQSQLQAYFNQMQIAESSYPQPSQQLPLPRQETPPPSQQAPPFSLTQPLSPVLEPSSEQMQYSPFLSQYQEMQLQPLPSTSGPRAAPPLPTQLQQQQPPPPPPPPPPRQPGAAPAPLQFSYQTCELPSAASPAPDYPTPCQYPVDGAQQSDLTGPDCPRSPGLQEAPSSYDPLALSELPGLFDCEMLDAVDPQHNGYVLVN
# How it was run: as §1
# CHK2 = target: T3, CHK2 (Homo sapiens, UniProt O96017)
# T3 construct: purchased Reaction Biology Corp
# T3 sequence (O96017 whole entry): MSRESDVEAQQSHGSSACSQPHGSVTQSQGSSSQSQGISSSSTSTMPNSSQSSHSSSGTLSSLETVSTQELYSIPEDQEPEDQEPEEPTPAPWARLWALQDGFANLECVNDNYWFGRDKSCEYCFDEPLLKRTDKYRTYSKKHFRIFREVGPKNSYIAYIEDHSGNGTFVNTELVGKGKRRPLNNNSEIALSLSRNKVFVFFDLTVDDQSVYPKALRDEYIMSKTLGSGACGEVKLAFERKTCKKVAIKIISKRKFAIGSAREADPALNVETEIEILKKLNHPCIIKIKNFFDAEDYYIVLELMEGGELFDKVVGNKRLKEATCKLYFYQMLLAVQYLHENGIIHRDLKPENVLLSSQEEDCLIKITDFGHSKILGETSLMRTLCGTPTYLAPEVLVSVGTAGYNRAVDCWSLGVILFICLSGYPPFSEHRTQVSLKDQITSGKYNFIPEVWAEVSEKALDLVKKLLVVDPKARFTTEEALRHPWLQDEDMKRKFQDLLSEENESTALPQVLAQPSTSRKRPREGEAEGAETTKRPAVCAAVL
# How it was run: as §1
# LIMK2 = target: T4, LIMK2 (Homo sapiens, UniProt P53671)
# T4 construct: purchased Reaction Biology Corp
# T4 sequence (P53671 whole entry): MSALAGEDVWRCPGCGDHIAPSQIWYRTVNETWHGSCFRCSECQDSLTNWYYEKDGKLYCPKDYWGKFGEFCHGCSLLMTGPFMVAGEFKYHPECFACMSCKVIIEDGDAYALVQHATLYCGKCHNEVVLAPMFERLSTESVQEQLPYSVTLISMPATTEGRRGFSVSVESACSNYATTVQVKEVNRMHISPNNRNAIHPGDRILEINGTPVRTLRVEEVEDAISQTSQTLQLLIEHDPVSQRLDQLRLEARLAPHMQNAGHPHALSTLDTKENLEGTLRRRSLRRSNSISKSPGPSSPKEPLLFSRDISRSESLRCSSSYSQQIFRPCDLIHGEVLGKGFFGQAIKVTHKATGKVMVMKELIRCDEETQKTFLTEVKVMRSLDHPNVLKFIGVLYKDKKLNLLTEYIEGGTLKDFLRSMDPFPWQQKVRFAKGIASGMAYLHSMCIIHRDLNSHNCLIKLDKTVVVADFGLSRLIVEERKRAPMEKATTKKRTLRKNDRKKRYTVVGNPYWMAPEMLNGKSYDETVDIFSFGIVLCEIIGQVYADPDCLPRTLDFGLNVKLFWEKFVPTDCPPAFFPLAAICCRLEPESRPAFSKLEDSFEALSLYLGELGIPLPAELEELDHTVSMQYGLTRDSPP
# How it was run: as §1
# DAPK2 = target: T5, DAPK2 (Homo sapiens, UniProt Q9UIK4)
# T5 construct: purchased Reaction Biology Corp
# T5 sequence (Q9UIK4 whole entry): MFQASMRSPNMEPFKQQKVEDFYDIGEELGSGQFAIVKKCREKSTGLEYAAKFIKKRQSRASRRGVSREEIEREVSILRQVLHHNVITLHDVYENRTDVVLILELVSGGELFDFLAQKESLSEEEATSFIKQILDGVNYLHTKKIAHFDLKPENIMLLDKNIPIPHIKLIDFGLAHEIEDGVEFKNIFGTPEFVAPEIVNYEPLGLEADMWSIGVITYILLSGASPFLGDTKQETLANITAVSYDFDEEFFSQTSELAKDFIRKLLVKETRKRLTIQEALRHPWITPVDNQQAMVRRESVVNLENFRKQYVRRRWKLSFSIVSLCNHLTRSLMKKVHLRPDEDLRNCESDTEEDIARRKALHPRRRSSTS
# How it was run: as §1
# CDK9/cyclin T1 = target: T6, CDK9/cyclin T1 (Homo sapiens, UniProt P50750)
# T6 construct: purchased Reaction Biology Corp
# T6 sequence (P50750 whole entry): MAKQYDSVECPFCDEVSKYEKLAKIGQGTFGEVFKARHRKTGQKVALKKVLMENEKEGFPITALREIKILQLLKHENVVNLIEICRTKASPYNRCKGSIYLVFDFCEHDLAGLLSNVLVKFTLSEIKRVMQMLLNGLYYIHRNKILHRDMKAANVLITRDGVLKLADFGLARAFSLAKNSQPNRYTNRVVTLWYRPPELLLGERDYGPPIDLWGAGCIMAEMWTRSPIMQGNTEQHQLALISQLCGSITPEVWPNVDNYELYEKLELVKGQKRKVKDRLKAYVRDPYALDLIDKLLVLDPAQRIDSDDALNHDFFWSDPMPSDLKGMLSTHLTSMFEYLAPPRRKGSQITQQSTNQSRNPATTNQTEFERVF
# T6 sequence (O60563 whole entry partner): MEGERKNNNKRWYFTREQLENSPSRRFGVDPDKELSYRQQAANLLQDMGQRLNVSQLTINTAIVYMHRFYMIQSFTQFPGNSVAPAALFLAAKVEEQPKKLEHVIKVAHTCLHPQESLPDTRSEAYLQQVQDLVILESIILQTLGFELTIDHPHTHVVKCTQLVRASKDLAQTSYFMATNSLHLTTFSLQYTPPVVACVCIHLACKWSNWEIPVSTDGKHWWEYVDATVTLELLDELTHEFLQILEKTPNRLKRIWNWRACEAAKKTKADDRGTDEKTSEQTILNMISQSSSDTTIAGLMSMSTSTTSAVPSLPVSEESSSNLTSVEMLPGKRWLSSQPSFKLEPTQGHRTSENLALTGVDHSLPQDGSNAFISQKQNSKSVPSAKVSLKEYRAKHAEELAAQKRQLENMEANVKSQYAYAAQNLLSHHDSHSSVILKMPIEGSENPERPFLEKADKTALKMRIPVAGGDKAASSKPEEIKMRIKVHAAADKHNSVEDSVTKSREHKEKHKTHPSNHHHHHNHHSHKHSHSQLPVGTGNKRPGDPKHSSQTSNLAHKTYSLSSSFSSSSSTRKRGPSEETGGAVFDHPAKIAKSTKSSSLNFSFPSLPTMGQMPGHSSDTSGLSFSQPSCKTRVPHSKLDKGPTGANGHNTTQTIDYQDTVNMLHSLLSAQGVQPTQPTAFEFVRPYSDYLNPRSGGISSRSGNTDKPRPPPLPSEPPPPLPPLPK
# How it was run: as §1
# GRK1 = target: T7, GRK1 (Homo sapiens, UniProt Q15835)
# T7 construct: purchased Reaction Biology Corp
# T7 sequence (Q15835 1-563): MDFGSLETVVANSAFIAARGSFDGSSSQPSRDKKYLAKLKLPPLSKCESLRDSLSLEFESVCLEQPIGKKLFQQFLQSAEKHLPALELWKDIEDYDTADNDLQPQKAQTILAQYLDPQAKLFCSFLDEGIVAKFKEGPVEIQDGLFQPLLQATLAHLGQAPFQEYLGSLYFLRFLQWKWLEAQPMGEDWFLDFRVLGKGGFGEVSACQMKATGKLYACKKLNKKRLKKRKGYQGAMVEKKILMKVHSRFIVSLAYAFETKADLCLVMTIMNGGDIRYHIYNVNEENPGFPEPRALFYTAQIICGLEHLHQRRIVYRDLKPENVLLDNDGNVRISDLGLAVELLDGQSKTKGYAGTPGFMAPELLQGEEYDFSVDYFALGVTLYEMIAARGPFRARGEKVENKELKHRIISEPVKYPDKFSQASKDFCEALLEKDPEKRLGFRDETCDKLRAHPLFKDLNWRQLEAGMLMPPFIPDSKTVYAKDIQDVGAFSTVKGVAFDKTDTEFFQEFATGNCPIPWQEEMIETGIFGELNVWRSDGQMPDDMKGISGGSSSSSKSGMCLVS
# How it was run: as §1
# [1] = read-out: % Enzyme Activity (relative to DMSO controls) Run 1
# [2] = read-out: % Enzyme Activity (relative to DMSO controls) Run 2
# T1 sequence (P42684 whole entry): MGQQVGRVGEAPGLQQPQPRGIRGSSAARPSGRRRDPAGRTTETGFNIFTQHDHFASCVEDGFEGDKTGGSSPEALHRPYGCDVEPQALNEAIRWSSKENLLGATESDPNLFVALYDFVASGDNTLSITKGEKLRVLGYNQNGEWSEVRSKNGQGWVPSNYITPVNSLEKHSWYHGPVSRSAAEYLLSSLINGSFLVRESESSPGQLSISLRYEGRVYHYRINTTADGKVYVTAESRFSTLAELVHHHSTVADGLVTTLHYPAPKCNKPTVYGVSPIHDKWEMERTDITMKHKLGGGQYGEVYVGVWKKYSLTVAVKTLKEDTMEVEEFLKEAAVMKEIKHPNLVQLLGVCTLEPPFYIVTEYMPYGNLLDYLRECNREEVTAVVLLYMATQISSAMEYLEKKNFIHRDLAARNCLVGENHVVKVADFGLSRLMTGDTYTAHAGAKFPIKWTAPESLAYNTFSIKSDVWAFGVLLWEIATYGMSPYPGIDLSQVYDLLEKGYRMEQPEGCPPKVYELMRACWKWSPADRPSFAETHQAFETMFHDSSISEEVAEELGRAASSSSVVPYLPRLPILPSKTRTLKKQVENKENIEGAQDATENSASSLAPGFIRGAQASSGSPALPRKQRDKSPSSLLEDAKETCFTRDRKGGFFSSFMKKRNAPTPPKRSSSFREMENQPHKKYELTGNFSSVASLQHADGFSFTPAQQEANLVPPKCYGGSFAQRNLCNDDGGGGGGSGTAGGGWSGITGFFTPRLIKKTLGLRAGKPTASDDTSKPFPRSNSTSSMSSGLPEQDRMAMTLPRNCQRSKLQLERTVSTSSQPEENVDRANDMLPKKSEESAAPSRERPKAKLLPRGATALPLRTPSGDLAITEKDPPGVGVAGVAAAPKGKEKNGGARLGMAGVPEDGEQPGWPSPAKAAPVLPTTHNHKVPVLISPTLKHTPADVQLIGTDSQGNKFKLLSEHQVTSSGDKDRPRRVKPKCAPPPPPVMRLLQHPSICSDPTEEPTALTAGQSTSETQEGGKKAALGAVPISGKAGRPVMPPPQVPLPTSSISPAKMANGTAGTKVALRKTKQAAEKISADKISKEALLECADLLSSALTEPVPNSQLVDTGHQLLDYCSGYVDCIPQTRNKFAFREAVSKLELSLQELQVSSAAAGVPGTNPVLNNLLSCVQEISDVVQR
compound,measurement,setting,value
C=CC(=O)Nc1cccc(Nc2nc(Nc3ccc(OCCOC)c(F)c3)ncc2F)c1 [Compound 2],inhibition at 3 µM,ABL2/ARG,62.8%
same,remaining activity at 3 µM,ABL2/ARG; [1],37.3%
same,remaining activity at 3 µM,ABL2/ARG; [2],37.1%
same,inhibition at 3 µM,SIK2,43.3%
same,remaining activity at 3 µM,SIK2; [1],56.3%
same,remaining activity at 3 µM,SIK2; [2],57.1%
same,inhibition at 3 µM,CHK2,74.4%
same,remaining activity at 3 µM,CHK2; [1],25.9%
same,remaining activity at 3 µM,CHK2; [2],25.3%
same,inhibition at 3 µM,LIMK2,-0.86%
same,remaining activity at 3 µM,LIMK2; [1],101%
same,remaining activity at 3 µM,LIMK2; [2],101%
same,inhibition at 3 µM,DAPK2,-9.89%
same,remaining activity at 3 µM,DAPK2; [1],108%
same,remaining activity at 3 µM,DAPK2; [2],112%
same,inhibition at 3 µM,CDK9/cyclin T1,10.3%
same,remaining activity at 3 µM,CDK9/cyclin T1; [1],87.8%
same,remaining activity at 3 µM,CDK9/cyclin T1; [2],91.5%
same,inhibition at 3 µM,GRK1,-3.47%
same,remaining activity at 3 µM,GRK1; [1],104%
same,remaining activity at 3 µM,GRK1; [2],103%
